# Source: patent US7020578B2, “Method for evaluating novel, stroke treatments using a tissue risk map” (The General Hospital Corporation, priority 2000, dated 2006)
# How the values were obtained:
# Assay type in all cases: in vivo, human
# [1] = GLM risk map of infarction from initial DWI/PWI compared with final infarct on follow-up imaging in bFGF trial patients; settings: Patient 7; full dose (150 ug/kg); 19 day follow-up FLAIR
# Text: A generalized linear model (GLM) of risk of tissue infarction was generated from retrospective studies of hyperacute cerebral ischemia patients who received diffusion and perfusion weighted imaging within twelve hours of presenting with symptoms. Only patients with cortical infarcts caused by occlusion of major cerebral arteries were included in the training data. […] The volumetric diffusion and perfusion data were coregistered utilizing an automated image registration software package (AIR 3.08). Utilizing a supervised learning algorithm and logistic regression, the parameters for the GLM were computed using coregistered data sets, as described in the previous section.
# In one embodiment, a GLM algorithm is used to model tissue outcome. Tissue outcome y can be modeled as a binary variable (normal/abnormal) and therefore a Bernoulli probability density function assumed for its distribution. The logistic function can then be used to compute y as set forth below in Equation 1: [formula] where y is an estimate of the risk of infarction, x represents an input vector that can include an initial T2, ADC, rCBF (relative cerebral blood flow), rCBV (relative cerebral blood volume) and MTT (mean transmit time) data and B the calculated coefficients.
# The dose of bFGF was correlated with the positive predictive value (PPV) of the GLM model described in the previous section. […]
# [2] = phase I/II double-blind, randomized, placebo-controlled, dose-escalation trial of intravenous bFGF (FIBLAST) in stroke patients; change in NIH Stroke Scale score, admission vs discharge; settings: for number of treated patients with ΔNIH SS < 4 / number of treated patients with ΔNIH SS ≧ 4 (improved outcome): 2 × 2 contingency table
# Procedure: Sixty-six patients were entered into a phase I/II trial of basic fibroblast growth factor (bFGF), FIBLAST. This trial was a double-blind, randomized, placebo-controlled, dose-escalation, and three month follow-up study of intravenous infusion of basic fibroblast growth factor (bFGF). Patients were randomized either to placebo or one of six different doses of bFGF ranging from […] to 150 μg/kg. Eleven patients were enrolled at Massachusetts General Hospital (MGH). Each patient underwent MRI imaging according to the standard MGH protocol within the first ten hours of symptom onset, and follow-up imaging at discharge.
# The primary efficacy measure was change in NIH Stroke Scale (NIHSS) score measured at admission compared to that reported at discharge. Patients were classified as having an improved outcome if the NIH SS score decreased by more than four points. Two by two contingency tables were computed for the placebo versus the bFGF treated patients and a Fisher's Exact test performed.
# Patients with greater than a four point change on the NIH SS score were classified as having a favorable outcome. A 2×2 contingency table, shown in Table 4, was evaluated for statistical independence between treated and placebo groups using Fisher's exact test.
# [3] = as above; settings: Patient 9*; 3 μg/kg; NIH SS (Initial) 2; follow-up 3 days
# [4] = patients enrolled at MGH, all doses pooled
# [5] = subset of 7 patients evaluated with GLM models
substance,measurement,setting,value
basic fibroblast growth factor [bFGF],"outcome of penumbra predicted at risk of infarction by the risk map, on follow-up FLAIR",[1],does not go on to infarction
same,number of treated patients with ΔNIH SS < 4,[2]; [4],4
same,number of treated patients with ΔNIH SS ≧ 4 (improved outcome),[2]; [4],4
same,number of treated patients with ΔNIH SS < 4,[2]; [5],1
same,number of treated patients with ΔNIH SS ≧ 4 (improved outcome),[2]; [5],4
same,NIH SS (Discharge),"[2]; Patient 3, 9 μg/kg, NIH SS (Initial) 15, follow-up 7 days",5
same,NIH SS (Discharge),"[2]; Patient 4, 27 μg/kg, NIH SS (Initial) 15, follow-up 7 days",11
same,NIH SS (Discharge),"[2]; Patient 5, 75 μg/kg, NIH SS (Initial) 6, follow-up 4 days",1
same,NIH SS (Discharge),"[2]; Patient 6, 150 μg/kg, NIH SS (Initial) 16, follow-up 13 days",14
same,NIH SS (Discharge),"[2]; Patient 7, 150 μg/kg, NIH SS (Initial) 17, follow-up 19 days",12
same,NIH SS (Discharge),"[2]; Patient 8*, 75 μg/kg, NIH SS (Initial) 4, follow-up 8 days",2
same,NIH SS (Discharge),"[2]; Patient 10*, 75 μg/kg, NIH SS (Initial) 4, follow-up 5 days",3
same,NIH SS (Discharge),"[2]; Patient 11*, 3 μg/kg, NIH SS (Initial) 18, follow-up 7 days",20
same,"statistical independence between treated and placebo groups, improved outcome (Fisher's exact test)","[2]; Table 4, patients enrolled at MGH",No statistical significance
same,"statistical independence between treated and placebo groups, improved outcome (Fisher's exact test)","[2]; Table 5, subset of 7 patients",No statistical significance
same,NIH SS (Discharge),[3],2
